Experimental data published in patent publication US10000496B2, “Compositions useful for treating disorders related to kit and PDGFR” (BLUEPRINT MEDICINES CORPORATION, priority 2015, dated 2018).

How the values were obtained:
D816V Kit = molecular target: T1, D816V Kit (Homo sapiens, UniProt P10721, D816V); assay: Kit D816V assay at Km (Caliper electrophoretic mobility shift); conditions: D816V Kit 0.5 nM, 15 uM ATP (Km), 1 uM Srctide, 25 C, 90 minutes; read-out: Biochemical Activity D816V IC50
T1 construct: purchased Carna Bioscience 08-156
Procedure: In order to assess the activity of chemical compounds against the relevant kinase of interest, the Caliper LifeSciences electrophoretic mobility shift technology platform is used. Fluorescently labeled substrate peptide is incubated in the presence of kinase and ATP so that a […] proportion of the peptide is phosphorylated. At the end of the reaction, the mix of phosphorylated (product) and non-phosphorylated (substrate) peptides are passed through the microfluidic system of the Caliper EZ Reader 2, under an applied potential difference. The presence of the phosphate group on the product peptide provides a difference in mass and charge between those of the substrate peptide, resulting in a separation of the substrate and product pools in the sample. As the pools pass a LEDS within the instrument, these pools are detected and resolved as separate peaks. The ratio between these peaks therefore reflects the activity of the chemical matter at that concentration in that well, under those conditions.
Kit D816V assay at Km: In each well of a 384-well plate, 0.04 ng/ul (0.5 nM) of D816V Kit (Carna Bioscience 08-156) was incubated in a total of 12.5 ul of buffer (100 mM HEPES pH 7.5, 0.015% Brij 35, 10 mM MgCl2, 1 mM DTT) with 1 uM Srctide (5-FAM-GEEPLYWSFPAKKK-NH2) and 15 uM ATP at 25 C for 90 minutes in the presence or absence of a dosed concentration series of compound (1% DMSO final concentration). The reaction was stopped by the addition of 70 ul of Stop buffer (100 mM HEPES pH 7.5, 0.015% Brij 35, 35 mM EDTA and 0.2% of Coating Reagent 3 (Caliper Lifesciences)). The plate was then read on a Caliper EZReader 2 (protocol settings:—1.9 psi, upstream voltage—700, downstream voltage—3000, post sample sip 35s). Data was normalized to 0% and 100% inhibition controls and the IC50 or EC50 calculated using a 4-parameter fit using GraphPad Prism.

[1] = molecular target: T2, Kit D816V in HMC1.2 cells (Homo sapiens, UniProt P10721, D816V/V560G); assay: HMC1.2 autophosphorylation assay (Kit autophosphorylation at tyrosine 719, AlphaLISA); type: cell-based; conditions: HMC1.2 mast cell leukemia cells (Kit V560G and D816V), phospho-Y719 c-Kit, 90 minutes; read-out: Cellular Activity IC50
T2 construct: endogenous in cells; host or cells: HMC1.2
Procedure: 10,000 HMC1.2 cells were incubated in 22 ul culture media (phenol-red free IMDM, no serum) in each well of a 384-well plate and serum starved overnight in a tissue culture incubator (5% CO2, 37° C.). A 10-point dose concentration series of compound (25 uM-95.4 pM) were then added to the cells in a volume of 3.1 ul to each well (0.25% DMSO final concentration). After 90 minutes, 6 ul of 5× AlphaLISA Lysis Buffer (Perkin Elmer) supplemented with a protease and phosphatase inhibitor cocktail (Cell Signaling Technologies) was added to each well and shaken at 450 rpm for 15 minutes at 4° C. 10 ul of phospho-Y719 c-Kit and total c-Kit antibodies (15 nM final concentration, Cell Signaling Technologies) and 50 ug/ml AlphaLISA rabbit acceptor beads (Perkin Elmer) were added to each well and shaken at 300 rpm at room temperature for 2 hours. 10 ul of 100 ug/ml streptavidin donor beads (Perkin Elmer) were added to each well, blocked from light with aluminum adhesive and shaken at 300 rpm at room temperature for 2 hours. Fluorescence signal was obtained on Envision (Perkin Elmer) by AlphaScreen 384 well HTS protocol. Data was normalized to 0% and 100% inhibition controls and the IC50 was calculated using Four Parameter Logistic IC50 curve fitting.
This cell line contains Kit mutated at positions V560G and D816V resulting in constitutive activation of the kinase. The following compounds were tested in an assay to measure direct inhibition of Kit D816V kinase activity by assaying Kit autophosphorylation at tyrosine 719 on the Kit protein.

T1 sequence (P10721 26-976 D816V): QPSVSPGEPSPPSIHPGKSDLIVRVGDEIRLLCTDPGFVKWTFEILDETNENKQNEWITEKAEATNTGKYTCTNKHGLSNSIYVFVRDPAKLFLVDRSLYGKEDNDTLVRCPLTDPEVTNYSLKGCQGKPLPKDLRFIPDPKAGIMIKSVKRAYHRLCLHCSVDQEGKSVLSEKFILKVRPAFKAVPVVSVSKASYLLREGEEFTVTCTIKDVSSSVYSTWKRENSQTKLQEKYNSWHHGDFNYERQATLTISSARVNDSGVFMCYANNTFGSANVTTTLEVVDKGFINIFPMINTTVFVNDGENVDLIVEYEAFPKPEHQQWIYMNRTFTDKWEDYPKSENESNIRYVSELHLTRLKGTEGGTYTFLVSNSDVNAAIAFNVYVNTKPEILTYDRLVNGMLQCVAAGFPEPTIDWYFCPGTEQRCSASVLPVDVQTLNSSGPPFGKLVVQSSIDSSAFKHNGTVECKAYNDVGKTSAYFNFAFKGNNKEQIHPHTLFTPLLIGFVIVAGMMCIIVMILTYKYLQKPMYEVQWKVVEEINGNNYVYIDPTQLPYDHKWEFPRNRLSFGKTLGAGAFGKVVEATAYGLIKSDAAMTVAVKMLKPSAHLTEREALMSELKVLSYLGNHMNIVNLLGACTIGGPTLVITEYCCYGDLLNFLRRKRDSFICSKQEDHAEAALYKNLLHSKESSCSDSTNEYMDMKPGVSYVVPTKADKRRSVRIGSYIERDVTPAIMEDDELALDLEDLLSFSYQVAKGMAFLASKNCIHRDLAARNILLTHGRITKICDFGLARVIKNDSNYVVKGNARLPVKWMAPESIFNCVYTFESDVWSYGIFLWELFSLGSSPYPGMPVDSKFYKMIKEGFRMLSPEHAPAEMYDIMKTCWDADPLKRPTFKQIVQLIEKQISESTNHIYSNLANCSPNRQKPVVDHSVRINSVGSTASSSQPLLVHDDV
T2 sequence (P10721 26-976 V560G/D816V): as the sequence (P10721 26-976 D816V) above, with V535G counted along it

| Structure (SMILES) | IC50 (D816V Kit) [nM] | IC50 [1] [nM] |
| --- | --- | --- |
| CC[C@H](C(=O)Nc1ccc(-c2ncnn3cc(-c4cnn(C)c4)cc23)cc1)c1ccc(Cl)cc1 [Compound 44] | 10 to 100 | 100 to 1000 |
| Cn1cc(-c2cc3c(-c4ccc(NC(=O)[C@](C)(N)c5ccc(Cl)cc5)cc4)ncnn3c2)cn1 [Compound 46, 2-amino-2-(4-chlorophenyl)-N-(4-(6-(1-methyl-1H-pyrazol-4-yl)pyrrolo[1,2-f][1,2,4]triazin-4-yl)phenyl)propanamide] | 1.01 to 10 | < 10 |
| CO[C@@H](C(=O)Nc1ccc(-c2ncnn3cc(-c4cnn(C)c4)cc23)cc1)c1ccc(Cl)cc1 [Compound 48] | < 1 | < 10 |
| Cn1cc(-c2cc3c(-c4ccc(NC(=O)C(C)(O)c5ccc(Cl)cc5)cc4)ncnn3c2)cn1 (stereo not drawn) [Compound 51] | 1.01 to 10 | 10 to 100 |
| COC(C(=O)Nc1ccc(-c2ncnn3cc(-c4cnn(C)c4)cc23)cc1)c1ccc(Cl)cc1 (stereo not drawn) [Compound 52] | 1.01 to 10 | 10 to 100 |
| CO[C@H](C(=O)Nc1ccc(-c2ncnn3cc(-c4cnn(C)c4)cc23)cc1)c1ccc(Cl)cc1 [Compound 53] | 10 to 100 | 100 to 1000 |
| O=S(=O)(Nc1ccc(-c2ncnn3cc(-c4ccc(F)cc4)cc23)cc1)c1ccc(Cl)cc1 [Compound 55] | > 100 | 1000 to 10000 |
| Cn1cc(-c2cc3c(-c4ccc(NS(=O)(=O)c5ccc(Cl)cc5)c(F)c4)ncnn3c2)cn1 [Compound 57] | 10 to 100 | 1000 to 10000 |
| CC(C)Oc1ccc(-c2cc3c(-c4ccc(NS(=O)(=O)c5ccc(Cl)cc5)cc4)ncnn3c2)cc1 [Compound 62, 4-chloro-N-(4-(6-(4-isopropoxyphenyl)pyrrolo[2,1-f][1,2,4]triazin-4-yl)phenyl)benzenesulfonamide] | 10 to 100 | 1000 to 10000 |
| CCC(=O)N1CC=C(c2cc3c(-c4ccc(NS(=O)(=O)c5ccc(Cl)cc5)cc4)ncnn3c2)CC1 [Compound 63] | < 1 | 10 to 100 |
| CCOC(=O)N1CC=C(c2cc3c(-c4ccc(NS(=O)(=O)c5ccc(Cl)cc5)cc4)ncnn3c2)CC1 [Compound 64, ethyl 4-(4-(4-((4-chlorophenyl)sulfonamido)phenyl)pyrrolo[2,1-f][1,2,4]triazin-6-yl)-3,6-dihydropyridine-1(2H)-carboxylate] | 1.01 to 10 | 10 to 100 |
| CS(=O)(=O)c1ccc(-c2cc3c(-c4ccc(NS(=O)(=O)c5ccc(Cl)cc5)cc4)ncnn3c2)cc1 [Compound 65] | 10 to 100 | 100 to 1000 |

The remaining lines, values ahead:

| IC50 (D816V Kit) [nM] | IC50 [1] [nM] | Structure (SMILES) |
| --- | --- | --- |
| 1.01 to 10 | 10 to 100 | CCC(C(=O)Nc1ccc(-c2ncnn3cc(-c4cnn(C)c4)cc23)cc1)c1ccc(Cl)cc1 (stereo not drawn) [Compound 43] |
| 1.01 to 10 | < 10 | Cn1cc(-c2cc3c(-c4ccc(NC(=O)[C@@](C)(N)c5ccc(Cl)cc5)cc4)ncnn3c2)cn1 [Compound 45, 2-amino-2-(4-chlorophenyl)-N-(4-(6-(1-methyl-1H-pyrazol-4-yl)pyrrolo[1,2-f][1,2,4]triazin-4-yl)phenyl)propanamide] |
| 1.01 to 10 | < 10 | Cn1cc(-c2cc3c(-c4ccc(NC(=O)C(C)(N)c5ccc(Cl)cc5)cc4)ncnn3c2)cn1 (stereo not drawn) [Compound 47, 2-amino-2-(4-chlorophenyl)-N-(4-(6-(1-methyl-1H-pyrazol-4-yl)pyrrolo[1,2-f][1,2,4]triazin-4-yl)phenyl)propanamide] |
| 1.01 to 10 | < 10 | Cn1cc(-c2cc3c(-c4ccc(NC(=O)[C@@](C)(O)c5ccc(Cl)cc5)cc4)ncnn3c2)cn1 [Compound 49, 2-(4-chlorophenyl)-2-hydroxy-N-(4-(6-(1-methyl-1H-pyrazol-4-yl)pyrrolo[1,2-f][1,2,4]triazin-4-yl)phenyl)propanamide] |
| 10 to 100 | 100 to 1000 | Cn1cc(-c2cc3c(-c4ccc(NC(=O)[C@](C)(O)c5ccc(Cl)cc5)cc4)ncnn3c2)cn1 [Compound 50, 2-(4-chlorophenyl)-2-hydroxy-N-(4-(6-(1-methyl-1H-pyrazol-4-yl)pyrrolo[1,2-f][1,2,4]triazin-4-yl)phenyl)propanamide] |
| 1.01 to 10 | < 10 | Cn1cc(-c2cc3c(-c4ccc(NC(=O)Cc5ccc(Cl)cc5Cl)cc4)ncnn3c2)cn1 [Compound 54] |
| 1.01 to 10 | 100 to 1000 | Cn1cc(-c2cc3c(-c4ccc(NS(=O)(=O)c5ccc(Cl)cc5)cc4F)ncnn3c2)cn1 [Compound 56] |
| 10 to 100 | 10 to 100 | CC(C)C(C(=O)Nc1ccc(-c2ncnn3cc(-c4cnn(C)c4)cc23)cc1)c1ccc(Cl)cc1 (stereo not drawn) [Compound 58] |
| 1.01 to 10 | 10 to 100 | CN(C)C(C(=O)Nc1ccc(-c2ncnn3cc(-c4cnn(C)c4)cc23)cc1)c1ccc(Cl)cc1 (stereo not drawn) [Compound 59, 2-(4-chlorophenyl)-2-(dimethylamino)-N-(4-(6-(1-methyl-1H-pyrazol-4-yl)pyrrolo[1,2-f][1,2,4]triazin-4-yl)phenyl)acetamide] |
| 1.01 to 10 | 10 to 100 | CC(C)(O)Cn1cc(-c2cc3c(-c4ccc(NC(=O)Cc5ccc(Cl)cc5)cc4)ncnn3c2)cn1 [Compound 60] |
| 10 to 100 | 1000 to 10000 | CC(C)(C)Oc1ccc(-c2cc3c(-c4ccc(NC(=O)Cc5ccc(Cl)cc5)cc4)ncnn3c2)cc1 [Compound 61] |
| > 100 | 1000 to 10000 | O=C(c1ccc(-c2cc3c(-c4ccc(NS(=O)(=O)c5ccc(Cl)cc5)cc4)ncnn3c2)cc1)N1CCC1 [Compound 66] |
